Source: paper PMC10895676, “Antiviral Activity of Lipophilic Nucleoside Tetraphosphate Compounds” (Journal of Medicinal Chemistry, 2024)
Entries after “also recorded” stand apart in the source; their conditions may differ.

Columns and labels:
[1] = Chemical hydrolysis in aqueous buffers (PBS pH 7.3 / 8.0, citrate buffer pH 2.0), RP18-HPLC; format: physicochemical; details: phosphate buffered saline; 25 mM PBS, pH 7.3, 37 °C; read-out: PBS pH 7.3 t1/2 (converted)
Method: All metabolite mixtures were analyzed and quantified by means of analytical RP18-HPLC (UV detection).
The solution was incubated at 37 °C in a thermomixer. […] for each extraction and stored at −30 °C. When testing, samples were warmed up to room temperature, and 25 or 20 μL of the liquid was taken and injected into the analytical RP-18-HPLC instrument. Further aliquots were taken for monitoring the kinetic hydrolysis.
5.88 g of citric acid and 3.58 g of NaCl were dissolved in 82 mL of hydrochloric acid (0.1 mol/L). Then, sodium hydroxide was added to adjust the pH to 2.0.

[2] = Cytotoxicity, inhibition of CEM cell proliferation; format: cell-based; details: human, CEM cells (CD4+ T-cells), read-out: toxicity CC50
[3] = tested on: HIV-2 (ROD); assay: Anti-HIV replication assay, HIV-2 (ROD) in thymidine kinase-deficient CEM/TK– cells; format: cell-based; details: Human immunodeficiency virus 2, CEM-TK(-), read-out: CEM/TK– HIV-2 (ROD) EC50
Method: (§1) Inhibition of HIV-1(HE)- and HIV-2(ROD)-induced cytopathogenicity in wild-type CEM/0 CEM CD4^+ T-cells and thymidine kinase-deficient CEM/TK^– cell cultures was measured in microtiter 96-well plates containing ∼3 × 10^5 CEM cells/mL infected with 100 CCID50 of HIV per milliliter and containing appropriate dilutions of the test compounds. After 4–5 days of incubation at 37 °C in a CO2-controlled humidified atmosphere, virus-induced cellular effects and syncytia cell formation were examined microscopically.

[4] = Cytotoxicity, inhibition of CEM/TK– cell proliferation; format: cell-based; details: human, CEM/TK– cells (CD4+ T-cells), read-out: toxicity CC50
[5] = tested on: HIV-1 (HE); assay: Anti-HIV replication assay, HIV-1 (HE) in wild-type CEM/0 cells; format: cell-based; details: Human immunodeficiency virus 1, CCRF-CEM, read-out: HIV-1 (HE) EC50
Method: as §1, with “microscopically. The EC50 (50% effective concentration) was defined as the compound concentration required to inhibit HIV-induced giant cell formation by 50%.” for “microscopically.”

[6] = molecular target: T1, human DNA polymerase β (Homo sapiens, UniProt P06746); assay: Primer extension assay using human DNA polymerase β; format: biochemical; details: 60 min, 2 U, 37 °C
T1 construct: purchased Chimerx
Text: Encouraged by the previously obtained results that γ-phosphate-modified-d4TDPs 3, γ-monoalkylated d4TTP derivatives as well as d4TDP were accepted as substrates by HIV-RT,[49],[50],[55],[59]−[61] δ-dialkylated d4T tetraphosphate analogues 4,5, δ-monoalkylated d4T tetraphosphate analogues 20 and 24 and d4T4P were investigated in primer extension assays in the presence of HIV-RT or the three different human DNA polymerases α, β and γ. D4TTP (for the compounds 4–9) and the natural thymidine triphosphate (TTP) were used as reference compounds.
(§2) Figure 6 Primer extension assay using HIV-RT (A), human polymerases α (B), β (C), and γ (D). (Figure 6A). Primer extension assay using HIV-RT (30 min, 6U). Lane 1: (+) dATP, dCTP, dGTP, and TTP with HIV-RT. Lane 2: (−) dATP, dCTP, dGTP, and TTP without HIV-RT. Lane 3: TTP. […] Lane 5: δ-(C4; C18)-d4T4P 4d. […] Lane 7: δ-(C18)-d4T4P 20. Lane 8: δ-C-(C18)-d4T4P 24. Lane 9: d4T4P. Lane 10: d4TTP. Lane 11: d4TDP. HIV-RT assay reaction conditions: 50 mM Tris–HCl (pH 8.6), 10 mM MgCl2, 40 mM KCl, 250 μM dNTPs, HIV-RT (6 U), 0.20 μM DNA hybrid, primer-template-hybrid 0.32 mM in a reaction volume of 10 μL, incubated at 37 °C for 0.5 h, 80 °C for 7 min. Primer extension assays: 50 mA, 45 w for 4 h. (Figure 6B). For human DNA polymerase α assay (60 min, 2 U): Lane 1: (+) dATP, dCTP, dGTP, and TTP with human polymerase α. Lane 2: (−) dATP, dCTP, dGTP, and TTP without human polymerase α. Lane 3: TTP. […] Lane 5: δ-(C4; C18)-d4T4P 4d. […] Lane 7: δ-(C18)-d4T4P 20. Lane 8: δ-C-(C18)-d4T4P 24. Lane 9: d4T4P. Lane 10: d4TTP. Human DNA polymerase α assay conditions: 60 mM Tris–HCl (pH 8), 5 mM Mg(OAc)2, 100 mM KCl, 1.0 mM dithiothreitol, 0.1 mM spermine, 0.01% (w/v) bovine serum albumin, 250 μM dNTPs, 2 U human polymerase α, 0.20 μM DNA hybrid, and primer-template-hybrid 0.32 mM in a reaction volume of 10 μL, incubated at 37 °C for 1 h, 80 °C for 7 min. Primer extension assays: 50 mA, 45 w for 3 h. (Figure 6C). For human DNA polymerase β assay (60 min, 2 U): Lane 1: (+) dATP, dCTP, dGTP, and TTP with human polymerase β. Lane 2: (−) dATP, dCTP, dGTP, and TTP without human polymerase β. Lane 3: TTP. […] Lane 5: δ-(C4; C18)-d4T4P 4d. […] Lane 7: δ-(C18)-d4T4P 20. Lane 8: δ-C-(C18)-d4T4P 24. Lane 9: d4T4P. Lane 10: d4TTP. Human DNA polymerase β assay conditions: 50 mM Tris–HCl (pH 8.7), 10 mM Mg(OAc)2, 100 mM KCl, 1.0 mM dithiothreitol, 0.1 mM spermine, 0.01% (w/v) bovine serum albumin, 15% glycerol, 250 μM dNTPs, 2 U human DNA polymerase β, 0.20 μM DNA hybrid, and primer-template-hybrid 0.32 mM in a reaction volume of 10 μL, incubated at 37 °C for 1 h, 80 °C for 7 min. Primer extension assays: 50 mA, 45 w for 3 h. (Figure 6D), For the human DNA polymerase γ assay (120 min, 2 U): Lane 1: (+) dATP, dCTP, dGTP, and TTP with human polymerase γ. Lane 2: (−) dATP, dCTP, dGTP, and TTP without human polymerase γ. Lane 3: TTP. […] Lane 5: δ-(C4; C18)-d4T4P 4d. […] Lane 7: δ-(C18)-d4T4P 20. Lane 8: δ-C-(C18)-d4T4P 24. Lane 9: d4T4P. Lane 10: d4TTP. Human polymerase γ assay conditions: 60 mM Tris–HCl (pH 8), 5 mM Mg(OAc)2, 1.0 mM dithiothreitol, 0.1 mM spermine, 0.01% (w/v) bovine serum albumin, 250 μM dNTPs, 2 U human polymerase γ, 0.5 μM MnCl2, 0.20 μM DNA hybrid, primer-template-hybrid 0.32 mM in a reaction volume of 10 μL, incubated at 37 °C for 2 h, 80 °C for 7 min. Primer extension assays: 50 mA, 45 w for 3 h.
HIV-RT and human polymerases α, β, and γ were bought from Roboklon and Chimerx. The fluorescent-labeled primer and template were obtained from Metabion. […]

[7] = tested on: HIV-2 (ROD); assay: Anti-HIV replication assay, HIV-2 (ROD) in wild-type CEM/0 cells; format: cell-based; details: Human immunodeficiency virus 2, CCRF-CEM, read-out: HIV-2 (ROD) EC50
Method: as §1

[8] = molecular target: T2, HIV-RT (Human immunodeficiency virus type 1 group M subtype B, UniProt P03366); assay: Primer extension assay using HIV-RT; format: biochemical; details: 30 min, 6 U HIV-RT, 37 °C
T2 construct: HIV-RT HIV reverse transcriptase; purchased Roboklon
Method: as §2
HIV-RT and human polymerases α, β, and γ were bought from Roboklon and Chimerx. The fluorescent-labeled primer and template were obtained from Metabion.
For the annealing of the primer/template mixture, 40 μL of the 10 μM primer and 60 μL of the 10 μM template were incubated for 5 min at 95 °C. Then, for optimal annealing, the temperature was reduced over a period of 2 h to 20 °C and incubated again for 20 min at 20 °C.
For the primer extension, the reaction mixture was incubated for 30 min for the HIV-RT, 60 min for the human DNA polymerase α, and 120 min for the human DNA polymerases β and γ at 37 °C, followed by 7 min at 80 °C.

| SMILES | half-life at 1.9 mM [1] [h] | CC50 [2] [µM] | EC50 [3] [µM] | CC50 [4] [µM] | EC50 [5] [µM] | substrate for human DNA polymerase β (primer extension) [6] | EC50 [7] [µM] | substrate for HIV-RT (primer extension) [8] |
| --- | --- | --- | --- | --- | --- | --- | --- | --- |
| CCCCOP(=O)(OCCCC)OP(=O)(O)OP(=O)(O)OP(=O)(O)OC[C@@H]1C=C[C@H](n2cc(C)c(=O)[nH]c2=O)O1 [4a, δ-(Alkyl-C4; alkyl-C4)-d4T4P] | 167 | > 100 | 14.8 ± 2.8 | > 100 | 0.22 ± 0.13 | substrate | 0.16 ± 0.04 |  |
| Cc1cn(C2C=CC(COP(=O)(O)OP(=O)(O)O)O2)c(=O)[nH]c1=O (stereo not shown) [d4TDP, reference compound] |  |  |  |  |  |  |  | good substrates |
| Cc1cn([C@H]2C=C[C@@H](COP(=O)(O)OP(=O)(O)OP(=O)(O)O)O2)c(=O)[nH]c1=O [d4TTP, d4T triphosphate, reference compound] |  |  |  |  |  | substrate |  | incorporation of d4TMP was detected; also recorded: good substrates |
